Measurements as given in patent publication US20050143427A1, “[B]-fused bicyclic proline derivatives and their use for treating arthritic conditions” (priority 2003, published 2005).
Read-outs that look alike come from different tables or passages of the source.

Legend:
[1] = Drug plasma half-life assay (DPH-LA) and bioavailability in rat; type: in vivo; conditions: male
Method: Three fasted male Sprague-Dawley rats are dosed by intravenous infusion via cannula over 5 minutes of 3 mg/kg of invention compound in 1.0 mL saline solution, and the cannulas were each rinsed with 1.0 mL saline solution immediately following infusion. Animals are fed at 4 hours post dose. Blood samples are collected by conventional means in tubes containing ethylenediaminetetraacetic acid (“EDTA”) at Times 0 (predose), 0.083 (end of infusion), 0.25, 0.5, 1, 2, 4, 6, 8, 12, and 24 hours post dose. Plasma is separated from the blood and stored frozen until analyzed by conventional high performance liquid chromatography, whereby 5.0 ng/mL was the lower limit of quantitation.
Three fasted male Wistar rats are dosed by oral gavage with optionally 5 mg/kg, 30 mg/kg, or 300 mg/kg of invention compound. Animals are fed at 4 hours post dose. Blood samples are collected by conventional means in tubes containing EDTA at Times 0 (predose), 0.5, 1, 2, 4, 6, 8, 12, and 24 hours post dose. Plasma is separated from the blood and stored frozen until analyzed.
Mean plasma half-life was determined by thawing and assaying the plasma samples using high performance liquid chromatography by conventional means. A concentration of test compound of 5.0 ng/mL was the lower limit of quantitation.
Plasma half-life was calculated as the time in hours by conventional means. Drug quantitation is done by comparison to standard samples containing known amounts of test compound.
Mean bioavailability for test compound was determined by calculating area under the concentration-time curve (“AUC”) Extrap using conventional methods.

[2] = tested on: MIA Rat (monosodium iodoacetate-induced osteoarthritis, right knee joint); experiment: Monosodium iodoacetate-induced osteoarthritis in rat model of joint cartilage damage (MIA Rat); type: in vivo; conditions: for % I @ 30 mg/kg BID (%) (± SEM): inhibition of loss of hind limb joint function in MIA at Day 14: 30 mg/kg BID oral
Text: One end result of the induction of osteoarthritis in this model, as determined by histologic analysis, is the development of an osteoarthritic condition within the affected joint, as characterized by the loss of Toluidine blue staining and formation of osteophytes. Associated with the histologic changes is a concentration-dependent degradation of joint cartilage, as evidenced by affects on hind-paw weight distribution of the limb containing the affected joint, the presence of increased amounts of proteoglycan or hydroxyproline in the joint upon biochemical analysis, or histopathological analysis of the osteoarthritic lesions.
The invention compounds typically are not effective for relieving joint pain when administered in an acute model, such as the instant MIA Rat model, which has a duration of just 14 or 28 days.
Generally, In the MIA Rat model on Day 0, the hind-paw weight differential between the right arthritic joint and the left healthy joint of male Wistar rats (150 g) are determined with an incapacitance tester, model 2KG (Linton Instrumentation, Norfolk, United Kingdom). The incapacitance tester has a chamber on top with an outwardly sloping front wall that supports a rat's front limbs, and two weight sensing pads, one for each hind paw, that facilitates this determination. Then the rats are anesthetized with isofluorine, and the right, hind leg knee joint is injected with 1.0 mg of mono-iodoacetate (“MIA”) through the infrapatellar ligament. Injection of MIA into the joint results in the inhibition of glycolysis and eventual death of surrounding chondrocytes. The rats are further administered either an invention compound or vehicle (in the instant case, water) daily for 14 days or 28 days.
The invention compound is typically administered at a dose of 30 mg of per kilogram of rat per day (30 mg/kg/day), but may be administered at other doses such as, for example, 10 mg/kg/day, 60 mg/kg/day, 90-mg/kg/day, or 100 mg/kg/day according to the requirements of the invention compound being studied. It is well within the level of ordinary skill in the pharmaceutical arts to determine a proper dosage of an invention compound in this model.
Administration of an invention compound in this model is optionally by oral administration or by intravenous administration via an osmotic pump. After 7 and 14 days for a two week study, or 7, 14, and 28 days for a four week study, the hind-paw weight distribution is again determined. Typically, the animals administered vehicle alone place greater weight on their unaffected left hind paw than on their right hind paw, while animals administered an invention compound show a more normal (i.e., more like a healthy animal) weight distribution between their hind paws. This change in weight distribution was proportional to the degree of joint cartilage damage. Percent inhibition of a change in hind paw joint function is calculated as the percent change in hind-paw weight distribution for treated animals versus control animals. For example, for a two week study, [formula] wherein: ΔWC is the hind-paw weight differential between the healthy left limb and the arthritic limb of the control animal administered vehicle alone, as measured on Day 14; and • ΔWG is the hind-paw weight differential between the healthy left limb and the arthritic limb of the animal administered an invention compound as measured on Day 14.
In order to measure biochemical or histopathological end points in the MIA Rat model, some of the animals in the above study may be sacrificed, and the amounts of free proteoglycan in both the osteoarthritic right knee joint and the contralateral left knee joint may be determined by biochemical analysis. The amount of free proteoglycan in the contralateral left knee joint provides a baseline value for the amount of free proteoglycan in a healthy joint. […]

[3] = target: pig alpha-2-delta receptor 1 (A2DR1) (Sus scrofa, UniProt A0A287BIN3); experiment: [3H]Gabapentin scintillant proximity A2DR1 binding assay (A2DR1 SPA, Biological Method 5); conditions: displacement of [3H]-gabapentin
Method: (§1) Recombinant HEK 293 cells expressing pig A2DR1 and A2DR2 subunits were grown under normal cell culture conditions (RPMI-1640 media with 10% FBS, 200 μg G418, and 1% penicillin/streptomycin 1t 37° C. with 5% CO2) until reaching confluency in T-75 flasks, at which time they were harvested. The harvested cells were suspended in ice-cold 5 mM Tris/5 mM ethylenediaminetetraacetic acid (“EDTA”) buffer, pH 7.4 (“TE buffer”) containing phenylmethylsulfonyl fluoride (“PMSF”) (0.1 mM) and Roche Complete Protease Inhibitor Cocktail, and allowed to sit on ice for 30 minutes. The cells were broken by sonication using 20 bursts, 40-50 cycles, and then centrifuged at 3000×g for 10 minutes. The resulting supernatant was transferred to a new tube and centrifuged at 50,000×g for 30 minutes. The resulting pellet was resuspended in 10 mM HEPES buffer, pH 7.4, homogenized, and stored at—80° C. The A2DR1 or A2DR2 membrane protein concentration was determined by the Pierce BCA method using bovine serum albumin (“BSA”) as the standard.
(§2) The [^3H]gabapentin SPA binding assay was performed in Costar 3632 96-well, clear bottom assay plates using Wheatgerm agglutinin beads (Amersham Pharmacia Biotech). Pig A2DR1 or A2DR2 membranes (10-20 μg protein per well) prepared above in Step (1) and SPA beads (0.5 mg per well) were mixed with 30 nM [^3H]gabapentin (52 Ci/mmol; Amersham Pharmacia Biotech) in 10 mM HEPES/10 mM MgSO4 assay buffer, pH 7.4 using KOH. The final well volume was 200 μL and non-specific binding was determined in the presence of 10 μM unlabeled pregabalin. The final mixture containing A2DR1 or A2DR2 membrane protein incubated with SPA beads, test compounds, and [^3H]gabapentin was incubated at room temperature for 15-24 hours, and the plates were then counted on a Wallace Trilux 1450 Microbeta scintillation counter. Step (3): Determination of IC50 values
(§3) Curve fitting and IC50 values were calculated using a four-parameter, non-linear regression equation from GraphPad Prism 3.0 software, while Ki values were determined using the equation of Chang and Prussoff.

[4] = target: pig alpha-2-delta receptor 2 (A2DR2) (UniProt A0A8W4FF87); experiment: [3H]Gabapentin scintillant proximity A2DR2 binding assay (A2DR2 SPA, Biological Method 5); conditions: displacement of [3H]-gabapentin
Method: as §1, §2, §3

[5] = target: T1, alpha-2-delta receptor 2 (A2DR2) (Homo sapiens, UniProt Q9NY47); experiment: [3H]Gabapentin A2DR2 binding assay (filter, Biological Method 4); conditions: displacement of [3H]-gabapentin
T1 construct: expressed in transfected cells; host or cells: HEK 293 (membrane preparation)
Text: HEK 293 recombinant cells expressing A2DR1 or A2DR2 protein are harvested and washed in phosphate buffered saline (“PBS”). The cells are centrifuged and resuspended in tris(hydroxymethyl)aminomethane-ethylenediaminetetraacetic acid (“Tris-EDTA” or “TE”) buffer containing Roche Complete Protease Inhibitor Cocktail. The cells are homogenized, centrifuged at 3000×g, and the supernatant centrifuged again at 50,000×g. The resulting pellet is resuspended and homogenized in TE. Following determination of A2DR1 or A2DR2 protein concentration, aliquots are stored at −70° C. until the day of testing (membrane preparation may be used for at least 6 months).
In one version, the binding assay is set up in a 96-well format using deep-well polypropylene plates. In a total volume of 500 μL, the following additions are made: 250 μL buffer [[…] N-2-hydroxyethylpiperazine-N′-2-ethanesulfonic acid (“HEPES”), pH 7.4], 25 μL [3H]gabapentin (10 nM final concentration), 200 μL thawed tissue membrane preparation from Step (1) (˜40 μg protein), and 25 μL of test compound at 7 test dilutions (for example, 0.001, 0.01, 0.03, 0.1, 0.3, 1.0, and 10 μM concentrations). Non-specific binding for each plate is determined by the addition of 10 μM of pregabalin instead of test compound in a few of the 96 wells. Following incubation for 45 minutes at 21° C., the contents of the wells are filtered under vacuum onto glass filter/B (“GF/B”) filter mats and then washed 4×1 mL with chilled 50 mM tris(hydroxymethyl)aminomethane (“Tris”) HCl, pH 6.9. The mats are placed into plastic pouches, scintillation cocktail is added, the pouches are sealed, and radioactivity for each sample is counted.
Specific binding values for each concentration are transformed and then analyzed by a 4-parameter nonlinear regression equation provided by Prism graphics software by Graph Pad to determine IC50 values by conventional means.

Sequence of pig alpha-2-delta receptor 1 (A2DR1) (A0A287BIN3 1-1109): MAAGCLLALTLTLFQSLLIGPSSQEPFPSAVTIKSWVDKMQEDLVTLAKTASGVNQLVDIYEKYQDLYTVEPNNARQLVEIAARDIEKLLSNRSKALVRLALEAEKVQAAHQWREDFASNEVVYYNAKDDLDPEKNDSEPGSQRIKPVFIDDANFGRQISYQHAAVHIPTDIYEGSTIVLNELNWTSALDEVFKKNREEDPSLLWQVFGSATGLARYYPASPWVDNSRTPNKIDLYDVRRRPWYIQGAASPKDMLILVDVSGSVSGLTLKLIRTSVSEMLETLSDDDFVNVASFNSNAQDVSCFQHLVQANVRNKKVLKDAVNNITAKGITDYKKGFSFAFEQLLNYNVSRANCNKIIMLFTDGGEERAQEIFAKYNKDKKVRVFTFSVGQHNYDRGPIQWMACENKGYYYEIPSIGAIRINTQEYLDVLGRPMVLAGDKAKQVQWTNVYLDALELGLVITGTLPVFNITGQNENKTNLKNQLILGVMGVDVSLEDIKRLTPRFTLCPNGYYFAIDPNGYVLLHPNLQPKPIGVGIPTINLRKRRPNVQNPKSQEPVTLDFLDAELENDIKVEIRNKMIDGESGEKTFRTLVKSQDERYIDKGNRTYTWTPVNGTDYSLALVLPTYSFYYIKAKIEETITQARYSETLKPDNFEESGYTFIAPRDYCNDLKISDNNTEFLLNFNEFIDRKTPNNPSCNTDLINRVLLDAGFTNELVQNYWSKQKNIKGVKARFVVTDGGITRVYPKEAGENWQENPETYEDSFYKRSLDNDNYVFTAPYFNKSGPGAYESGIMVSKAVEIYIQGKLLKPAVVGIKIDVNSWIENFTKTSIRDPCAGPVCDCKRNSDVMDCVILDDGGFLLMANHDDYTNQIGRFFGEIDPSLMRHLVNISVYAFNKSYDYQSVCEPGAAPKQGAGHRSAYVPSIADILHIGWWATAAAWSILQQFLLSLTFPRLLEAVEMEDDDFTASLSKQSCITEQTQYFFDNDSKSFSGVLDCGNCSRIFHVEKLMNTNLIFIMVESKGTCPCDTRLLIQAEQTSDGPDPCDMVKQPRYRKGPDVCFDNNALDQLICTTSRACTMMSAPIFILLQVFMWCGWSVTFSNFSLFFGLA
T1 sequence (Q9NY47 19-1150): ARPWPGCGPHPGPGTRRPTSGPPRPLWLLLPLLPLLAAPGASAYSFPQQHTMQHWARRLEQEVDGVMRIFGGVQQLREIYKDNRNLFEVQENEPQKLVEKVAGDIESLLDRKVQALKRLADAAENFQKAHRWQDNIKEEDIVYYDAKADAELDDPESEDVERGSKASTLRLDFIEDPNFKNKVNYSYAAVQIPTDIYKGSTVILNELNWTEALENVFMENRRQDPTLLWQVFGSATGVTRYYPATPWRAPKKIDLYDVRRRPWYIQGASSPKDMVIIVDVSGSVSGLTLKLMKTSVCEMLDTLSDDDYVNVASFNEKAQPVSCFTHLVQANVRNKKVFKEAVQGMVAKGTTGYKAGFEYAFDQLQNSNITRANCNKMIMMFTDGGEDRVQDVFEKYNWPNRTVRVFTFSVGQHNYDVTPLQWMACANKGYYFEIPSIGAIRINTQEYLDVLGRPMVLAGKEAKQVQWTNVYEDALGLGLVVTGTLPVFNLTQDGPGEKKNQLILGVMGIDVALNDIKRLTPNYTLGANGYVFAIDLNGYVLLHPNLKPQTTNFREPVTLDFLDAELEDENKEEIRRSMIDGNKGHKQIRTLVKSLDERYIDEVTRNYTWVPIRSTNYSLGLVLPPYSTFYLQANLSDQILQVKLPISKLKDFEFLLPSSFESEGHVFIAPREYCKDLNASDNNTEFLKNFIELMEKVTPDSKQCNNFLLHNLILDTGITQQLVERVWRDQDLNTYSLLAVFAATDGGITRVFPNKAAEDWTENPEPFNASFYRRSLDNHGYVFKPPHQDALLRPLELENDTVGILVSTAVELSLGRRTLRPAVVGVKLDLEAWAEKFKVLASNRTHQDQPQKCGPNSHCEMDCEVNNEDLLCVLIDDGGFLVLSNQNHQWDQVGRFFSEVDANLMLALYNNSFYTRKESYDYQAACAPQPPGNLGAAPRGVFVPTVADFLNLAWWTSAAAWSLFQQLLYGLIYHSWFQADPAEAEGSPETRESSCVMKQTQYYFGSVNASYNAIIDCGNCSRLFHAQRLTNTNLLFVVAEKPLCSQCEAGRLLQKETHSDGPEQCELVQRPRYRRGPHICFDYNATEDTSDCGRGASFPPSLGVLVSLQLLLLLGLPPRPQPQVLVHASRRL

| SMILES | IC50 [3] [µM] | IC50 [4] [µM] | also measured |
| --- | --- | --- | --- |
| CN1[C@H](C(=O)O)C[C@@H]2CCCC[C@@H]21.Cl [A1] | – | – | bioavailability ([1]; Wistar, in vivo, po, administered orally, rat (footnote of Table 2), read-out: bioavailability): 63%; half-life ([1]; Wistar, rat, in vivo, po, administered orally, rat (footnote of Table 2), read-out: half-life): 10 h |
| CN1[C@H](C(=O)O)C[C@@H]2CCCC[C@@H]21.Cl [Example A1] | ≥ 10 | ≥ 10 | % I @ 30 mg/kg BID (%) (± SEM): inhibition of loss of hind limb joint function in MIA at Day 14 ([2]; 2-week MIA study, Day 14, rat): 59 ± 17%; bioavailability ([1]; Wistar, in vivo, rat, PO, 30 mg/kg, read-out: Mean Bioavailability): 63%; half-life ([1]; Wistar, rat, in vivo, po, 30 mg/kg, rat plasma, PO, 30 mg/kg, read-out: Mean T1/2 (converted)): 25.3 h; half-life ([1]; Wistar, rat, in vivo, po, 300 mg/kg, rat plasma, PO, 300 mg/kg, read-out: Mean T1/2 (converted)): 11.1 h |
| CCN1[C@H](C(=O)O)C[C@@H]2CCCC[C@@H]21 [Example A3] | ≥ 10 | ≥ 10 | – |
| CCCN1[C@H](C(=O)O)C[C@@H]2CCCC[C@@H]21 [Example A5] | ≥ 10 | ≥ 10 | – |
| CC(C)CN1[C@H](C(=O)O)C[C@@H]2CCCC[C@@H]21 [Example A6] | ≥ 10 | ≥ 10 | – |
| COCCN1[C@H](C(=O)O)C[C@@H]2CCCC[C@@H]21 [Example A7] | ≥ 10 | ≥ 10 | – |
| CS(=O)(=O)NC(=O)[C@@H]1C[C@@H]2CCCC[C@@H]2N1 [Example E1] | ≥ 10 | ≥ 10 | – |
| O=c1[nH]c([C@@H]2C[C@@H]3CCCC[C@@H]3N2)no1 [Example F1] | – | – | % I @ 30 mg/kg BID (%) (± SEM): inhibition of loss of hind limb joint function in MIA at Day 14 ([2]; 2-week MIA study, Day 14, rat): (i) 82^2; %; IC50 [5]: ≥ 10 µM |
| CCC1CCC2CC(C(=O)O)NC2C1 (centres unmarked) [Example O1] | 1.3 | 4.5 | – |
| COC1CCC2CC(C(=O)O)NC2C1 (centres unmarked) [Example O3] | – | – | IC50 [5]: 2.23 µM |
| CC(C)(C)C1CCC2NC(C(=O)O)CC2C1 (centres unmarked) [Example O8] | ≥ 10 | ≥ 10 | – |
| O=C(O)C1CC2C(CCCC2C(F)(F)F)N1 (centres unmarked) [Example O10] | ≥ 10 | ≥ 10 | % I @ 10 mg/kg/day (%) (± SEM): inhibition of loss of hind limb joint function in MIA at Day 14 ([2]; 10 mg/kg/day via osmotic pump, 2-week MIA study, Day 14, rat): 0% |
| O=C(O)[C@]12C[C@H]1[C@@H]1CCCC[C@@H]1N2 [Example Q1] | 2.6 | ≥ 10 | – |
| CN(C)CC(C)(C)COC(=O)C1C[C@@H]2CCCC[C@@H]2N1 (some centres unmarked) [Example Y1] | 0.29 | 1.4 | – |
| O=c1[nH]c([C@@H]2C[C@@H]3CCCC[C@@H]3N2)no1 [F1] | – | – | % I (%) (± SEM): inhibition of loss of hind limb joint function in MIA at Day 14 ([2]; via Alzet osmotic pump (footnote 3), Day 14, rat): (ii) 59 ± 9^3% |
| O=C(O)[C@@H]1C[C@@H]2CCCC[C@@H]2N1 [OHI2CA, (2S,3aS,7aS)-octahydroindole-2-carboxylic acid, reference compound] | 0.11 | 0.6 | half-life ([1]; Sprague-Dawley, rat plasma, IV, 3 mg/kg, read-out: Mean T1/2 (converted)): 4.01 h; bioavailability ([1]; Wistar, plasma, po, administered orally, rat (footnote of Table 2), read-out: bioavailability): 72%; half-life ([1]; Wistar, plasma, po, administered orally, rat (footnote of Table 2), read-out: half-life): 4 h; bioavailability ([1]; Wistar, plasma, rat, PO, 5 mg/kg, read-out: Mean Bioavailability): 72%; half-life ([1]; Wistar, rat plasma, PO, 5 mg/kg, read-out: Mean T1/2 (converted)): 3.78 h |
| CN1[C@H](C(=O)O)C[C@@H]2CCCC[C@@H]21 [[2(S),3a(S),7a(S)]-1-methyl-2,3,3a,4,5,6,7,7a-octahydroindole-2-carboxylic acid] | – | – | degree of structural damage to the cartilage ([2]; 30 mg/kg and 10 mg/kg doses, PO BID, 4 weeks post-MIA): significantly decreased; cartilage erosion severity ([2]; 30-mg/kg and 10-mg/kg doses, PO BID, MIA rat): significantly decrease; joint function limitations (differential hind-limb weight bearing) ([2]; PO BID, MIA rat): decrease joint function limitations; joint pain ([2]; all doses (3 to 30 mg/kg PO BID), 4 weeks post-MIA): significantly decreased |
